Among the data in DBAASP are MIC values, retold here.

By MIC is commonly meant the least concentration at which growth counts as inhibited.

Common to all, as to experiment: ≥ marks a high value that may be exact or a test limit, other limits are often not marked, values filed in µg/mL are converted to µM
Experiment [1] concerns Staphylococcus aureus ATCC 15752.
The test system of experiment [2] is Pseudomonas putida ATCC 17426.
Experiment [3] relates to Bacillus subtilis ATCC 62037.
Experiment [4] deals with Escherichia coli ATCC 27325.
Experiment [5] has as its system Streptococcus mutans ATCC 25175.
The test system of experiment [6] is Saccharomyces cerevisiae ATCC 44774.
Experiment [7] deals with Cryptococcus neoformans ATCC 34881.
For experiment [8], the system named is Candida albicans ATCC 10231.
The test system of experiment [9] is Salmonella enterica subsp. enterica serovar Enteritidis ATCC 13076.
The subject of experiment [10] is Bacillus subtilis IFO 3336.
The test system of experiment [11] is Escherichia coli IFO 3301.
For experiment [12], the system named is Staphylococcus aureus CCARM 3543.
Experiment [13] deals with Staphylococcus epidermidis KCTC 1917.
The test system of experiment [14] is Pseudomonas aeruginosa CCARM 2095.
The subject of experiment [15] is Pseudomonas aeruginosa CCARM 2109.
In experiment [16] the test system is Escherichia coli KCTC 1682.
For experiment [17], the system named is Salmonella typhimurium KCTC 1926.
Experiment [18] has as its system Bacillus subtilis KCTC 3068.
In experiment [19] the test system is Pseudomonas aeruginosa KCTC 1637.
Experiment [20] concerns Staphylococcus aureus CCARM 3001.
Experiment [21] has as its system Staphylococcus aureus KCTC 1621.
The subject of experiment [22] is Streptococcus mutans ATCC 104495.
Experiment [23] concerns Streptococcus mutans UA159.
Another experiment concerns Streptococcus mutans T8.
In experiment [24] the test system is Streptococcus sanguinis NY101.
Experiment [25] concerns Streptococcus sanguinis ATCC 10556.
Experiment [26] concerns Streptococcus salivarius K12.
Experiment [27] relates to Streptococcus mutans comD.
Experiment [28] has as its system Streptococcus gordonii DL1.
For experiment [29], the system named is Streptococcus gordonii ATCC 10558.
The test system of experiment [30] is Streptococcus mutans UA140.
For experiment [31], the system named is Escherichia coli ATCC 25922.
In experiment [32] the test system is Pseudomonas aeruginosa ATCC 27853.
Experiment [33] relates to Staphylococcus aureus TK784.
In experiment [34] the test system is Staphylococcus epidermidis ATCC 12228.
The test system of experiment [35] is Salmonella enterica subsp. enterica serovar Typhimurium ATCC 14028.
For experiment [36], the system named is Shigella dysenteriae ATCC 9752.
Experiment [37] has as its system Klebsiella pneumoniae ATCC 10031.
Experiment [38] deals with Bacillus subtilis ATCC 6633.
In experiment [39] the test system is Staphylococcus aureus ATCC 6538P.
Experiment [40] relates to Micrococcus luteus ATCC 10240.

Structures are written as SMILES. In brackets after ≈: the same amount, converted by molar mass. Some results are limits rather than exact numbers.

As to `CC(C)[C@H](NC(=O)[C@H](CCCCN)NC(=O)CNC(=O)CNC(=O)[C@H](CCC(N)=O)NC(=O)[C@H](CCCCN)NC(=O)CNC(=O)[C@H](CCCN=C(N)N)NC(=O)CN)C(=O)N[C@@H](CCCN=C(N)N)C(=O)N[C@@H](C)C(=O)N[C@@H](CCCCN)C(=O)N[C@@H](C)C(=O)N[C@@H](CCCCN)C(=O)N[C@H](C(=O)N[C@@H](CCCN=C(N)N)C(=O)N[C@@H](CO)C(=O)N[C@@H](CO)C(=O)O)[C@@H](C)O` [GRGKQGGKVRAKAKTRSS], the MIC in experiment [1], in [2], in experiment [3], in experiment [4], in experiment [5] and in [6] was at least 68.4 µM in each case. The MIC in [7] was at least 68.4 µM; in [8], above 68.4 µM; in experiment [9] it was at least 68.4 µM.

In the case of `NC(N)=NCCC[C@H](NC(=O)[C@H](Cc1cnc[nH]1)NC(=O)[C@H](CCCN=C(N)N)NC(=O)[C@H](Cc1cnc[nH]1)NC(=O)[C@H](CCCN=C(N)N)NC(=O)[C@H](Cc1cnc[nH]1)NC(=O)[C@H](CCCN=C(N)N)NC(=O)[C@H](Cc1cnc[nH]1)NC(=O)[C@H](CCCN=C(N)N)NC(=O)[C@@H](N)Cc1cnc[nH]1)C(=O)O` [HRHRHRHRHR], the MIC in experiment [10] and in [11] was 6.74 µM (≈ 10 µg/mL) in each case.

Consider `CC(C)C[C@H](NC(=O)[C@H](CC(C)C)NC(=O)[C@H](Cc1c[nH]c2ccccc12)NC(=O)[C@H](CCCCN)NC(=O)[C@H](CC(C)C)NC(=O)[C@H](Cc1c[nH]c2ccccc12)NC(=O)[C@H](CC(C)C)NC(=O)[C@H](CC(C)C)NC(=O)[C@H](Cc1c[nH]c2ccccc12)NC(=O)[C@H](CC(C)C)NC(=O)[C@@H](N)CCCCN)C(N)=O` [KLWLLWLKWLL], for which the MIC is at least 32 µM in experiment [12]; at least 32 µM in experiment [13]; at least 64 µM in experiment [14]; at least 64 µM in experiment [15]; at least 32 µM in experiment [16]; at least 32 µM in experiment [17]. Besides, the MIC in experiment [18] is at least 32 µM; in experiment [19], 16 µM (≈ 24.2 µg/mL); in [20] it was at least 64 µM; in experiment [21], at least 32 µM.

With `CC[C@H](C)[C@H](NC(=O)CNC(=O)[C@H](CCCCN)NC(=O)[C@H](CCCN=C(N)N)NC(=O)[C@@H](NC(=O)[C@@H](NC(=O)[C@H](CCCN=C(N)N)NC(=O)[C@H](CC(C)C)NC(=O)[C@H](CC(N)=O)NC(=O)[C@@H](N)CCCCN)[C@@H](C)CC)[C@@H](C)CC)C(=O)N[C@@H](Cc1cnc[nH]1)C(=O)N[C@H](C(=O)N[C@H](C(=O)N[C@@H](CCCCN)C(=O)N[C@@H](CCCCN)C(=O)N[C@@H](Cc1ccc(O)cc1)C(N)=O)[C@@H](C)CC)[C@@H](C)CC` [KNLRIIRKGIHIIKKY], the MIC in experiment [22] was at least 33.3 µM; in [23], 12.1 µM (≈ 24.1 µg/mL); against Streptococcus mutans T8, 14.2 µM (≈ 28.3 µg/mL); in experiment [24] it was at least 33.6 µM; in experiment [5], 14.8 µM (≈ 29.5 µg/mL); in experiment [25], at least 50 µM. Besides, the minimal inhibitory concentration (MIC) is 16.7 µM (≈ 33.3 µg/mL) in experiment [26]; 15.3 µM (≈ 30.5 µg/mL) in [27]; at least 41.3 µM in [28]; at least 50 µM in experiment [29]; at least 33.3 µM in experiment [30].

As to `CC(C)C[C@H](NC(=O)[C@H](Cc1c[nH]c2ccccc12)NC(=O)[C@H](CCCCN)NC(=O)[C@H](CC(C)C)NC(=O)[C@H](CC(C)C)NC(=O)[C@H](Cc1c[nH]c2ccccc12)NC(=O)[C@H](CCCCN)NC(=O)[C@@H](N)CC(C)C)C(=O)N[C@@H](CCCCN)C(N)=O` [LKWLLKWLK], the minimum inhibitory concentration (MIC) in experiment [31] is 4.07 µM (≈ 5 µg/mL); in experiment [32] it was 32.6 µM (≈ 40 µg/mL); in experiment [33] it was 16.3 µM (≈ 20 µg/mL); in experiment [34], 4.07 µM (≈ 5 µg/mL); in experiment [35], 32.6 µM (≈ 40 µg/mL); in [36], at least 32.6 µM. Besides, the MIC amounted to 16.3 µM (≈ 20 µg/mL) in [37], 4.07 µM (≈ 5 µg/mL) in experiment [38], 2.04 µM (≈ 2.5 µg/mL) in experiment [39] and 8.15 µM (≈ 9.99 µg/mL) in experiment [40].
